Measurements as given in patent publication US10034462B2, “Animal model of nash-induced hepatocellular carcinoma and methods for developing specific therapeutics” (THE REGENTS OF THE UNIVERSITY OF CALIFORNIA, priority 2015, dated 2018).

Columns and labels:
[1] = system: primary hepatocytes from WT and MUP-uPA mice; assay: Immunoblot of CHOP expression, SREBP1 maturation and JNK phosphorylation in PA-treated primary hepatocytes; assay type: cell-based, mouse
Experimental: (§1) FIGS. 4A-4I are pictorial and graphical diagrams showing that chemical chaperons attenuate lipotoxicity and liver damage in MUP-uPA mice. […] Cell viability was assessed using Cell Counting Kit-8 assay. Data are means±S.D. of triplicate wells. *p<0.05. […] CHOP expression, SREBP1 maturation, and JNK phosphorylation were assessed by IB. FIGS. 4C-4D show the effect of GRP78 overexpression. MUP-uPA hepatocytes were infected with adenoviruses encoding LacZ or GRP78 and then incubated with PA. SREBP1 maturation (FIG. 4C) and cell viability (FIG. 4D) were assessed as above. […] Data are means±S.D. of triplicate wells. *p<0.05. FIGS. 4F-4I show the effect of TUDCA on NASH in HFD-fed MUP-uPA mice. 16 week old HFD-fed MUP-uPA mice were i.p. injected with TUDCA (250 mg/kg) or vehicle, and after 4 weeks of daily treatment, liver histology (scale bar=100 μm) (FIG. 4F), serum ALT (FIG. 4G), liver TG (FIG. 4H) and liver cholesterol (FIG. 4I) were evaluated. Bar graphs are means±S.D. (n=5 per group). *p<0.05. See also FIGS. 11A-11M.
Primary hepatocytes were isolated (He et al., 2013) and cultured in William's E medium with 10% FBS on collagen-coated plates. PA (Sigma) was dissolved in ethanol at 50° C. and then diluted in bovine serum albumin-containing RPMI-1640 medium that was applied to primary hepatocytes at a final concentration of 200 (to analyze signal transduction) or 300 (to analyze cell death) μM.
Immunoblotting and real-time Q-PCR were described (Maeda et al., 2005). Antibodies used were against: phospho-ERK, ERK1/2, phospho STAT3, STAT3, phospho-JNK, JNK1/2, phospho-S6, S6, p65, cyclinD1, YAP (all from Cell Signaling); K19, GRP78, SREBP1, CHOP, CCL7, TNFR1 (all from Santa Cruz Biotechnology); phospho-eIF2α (Upstate); tubulin (Sigma); F4/80 (Molecular Probes); Ki67 (Gene Tex); AFP (Biocare Medical); TNF (R&D Systems); B220 (BD Pharmingen). TUDCA and 4-PBA were from Calbiochem and Sigma, respectively. GSH:GSSG ratio was analyzed using GSSG/GSH Quantification Kit (Dojindo).
To examine whether ER stress enhances lipotoxicity in MUP-uPA hepatocytes, we incubated WT and MUP-uPA hepatocytes with PA. […] PA increased CHOP expression and SREBP1 maturation in WT hepatocytes, but these effects were more pronounced in MUP-uPA hepatocytes, which expressed both proteins prior to PA addition (FIG. 4B). To examine the contribution of ER stress to these phenomena, we treated hepatocytes with the chemical chaperons 4-phenylbutyrate (4-PBA) and tauro-ursodeoxycholic acid (TUDCA), which reduce ER stress (Ozcan et al., 2006).

[2] = system: primary hepatocytes from WT and MUP-uPA mice; assay: PA-induced lipotoxic cell death in primary hepatocytes (Cell Counting Kit-8 cell viability); assay type: cell-based; conditions: for PA-induced cell death (cell viability): 300 μM PA for 24 hr with 500 μM TUDCA or 1 mM 4-PBA, WT and MUP-uPA hepatocytes
Experimental: Cell viability was assessed using Cell Counting Kit-8 assay. Data are means±S.D. of triplicate wells. *p<0.05. […] CHOP expression, SREBP1 maturation, and JNK phosphorylation were assessed by IB. FIGS. 4C-4D show the effect of GRP78 overexpression. MUP-uPA hepatocytes were infected with adenoviruses encoding LacZ or GRP78 and then incubated with PA. SREBP1 maturation (FIG. 4C) and cell viability (FIG. 4D) were assessed as above. […] Data are means±S.D. of triplicate wells. *p<0.05. FIGS. 4F-4I show the effect of TUDCA on NASH in HFD-fed MUP-uPA mice. 16 week old HFD-fed MUP-uPA mice were i.p. injected with TUDCA (250 mg/kg) or vehicle, and after 4 weeks of daily treatment, liver histology (scale bar=100 μm) (FIG. 4F), serum ALT (FIG. 4G), liver TG (FIG. 4H) and liver cholesterol (FIG. 4I) were evaluated. Bar graphs are means±S.D. (n=5 per group). *p<0.05. See also FIGS. 11A-11M.
To examine whether ER stress enhances lipotoxicity in MUP-uPA hepatocytes, we incubated WT and MUP-uPA hepatocytes with PA.

HFD-fed MUP-uPA mice = assay: Effect of TUDCA on NASH in HFD-fed MUP-uPA mice; assay type: in vivo, mouse
Experimental: as §1
FIGS. 11A-11M are pictorial and graphical diagrams showing the effects of TUDCA and GRP78 overexpression and CHOP ablation on NASH and HCC development. FIGS. 11A and 11B show cell death and ROS accumulation in livers of TUDCA- or vehicle-treated HFD-fed MUP-uPA mice were examined by TUNEL (FIG. 11A) and DHE staining (FIG. 11B), respectively (scale bar=100 μm). […] CHOP protein expression in whole liver and mature SREBP1 in the nuclear fraction were examined by IB analysis. Shown are three individual livers per condition. FIGS. 11D and 11E show the effects of GRP78 overexpression. HFD-fed MUP-uPA mice were intravenously injected with 1×10^9 pfu of Ad-LacZ or Ad-GRP78. After 6 days the mice (n=6 per group) were sacrificed and hepatic steatosis was analyzed by H&E staining (scale bar=100 μm) (FIG. 11D) and GRP78 expression was determined by IB analysis (FIG. 11E). […] Data are means±S.D. (n=3 per group). […] FIGS. 11H-11K show the effect of hepatocyte CHOP ablation on tumor development and severity of NASH in HFD-fed MUP-uPA mice at 40 weeks of age. […] Results are means±S.E.M. (Chop^F/F/MUP-uPA, n=17; Chop^Δhep/MUP-uPA, n=11). *p<0.05. […] Data are means±S.D. (n=5-6 per group).
FIGS. 12A-12F are pictorial and graphical diagrams showing characteristics of Tnfr1^−/−/MUP-uPA mice. FIGS. 12A and 12B show the effect of 4 weeks TUDCA treatment on HFD-fed MUP-uPA mouse liver. IHC of F4/80 (scale bar=100 μm) (FIG. 12A) and TNF mRNA expression (FIG. 12B). Data are means±S.D. (n=5 per group). *p<0.05. […] Data are presented as means±S.D. (n=3 per group). […] Data are presented as means±S.D. (n=5 per group). […] Results are shown as means±S.D.
Hepatic lipids were extracted with chloroform/methanol (2:1 v/v), and TG and total cholesterol contents were measured with Triglyceride Reagent Set (Pointe Scientific) and Cholesterol E (Wako), respectively. FA composition was analyzed by gas-chromatography at SRL Inc., Tokyo, Japan.
Livers were fixed in 10% neutral-buffered formalin or 4% paraformaldehyde, embedded in paraffin, sectioned, and stained with hematoxylin and eosin (H&E), Sirius Red, and processed for IHC. For frozen block preparation, tissue was embedded in Tissue-Tek OCT compound (Sakura Finetek). IHC and IF analyses were described (He et al., 2013). Stained areas were quantitated with Image J software. Slides were incubated with primary antibodies, followed by secondary antibodies labeled with Alexa488 or Alexa594 (Molecular Probes). TUNEL staining was performed using an Apoalert DNA Fragmentation Assay kit (Clontech). Accumulation of superoxide anions was examined by DHE staining (Sakurai et al., 2008). Tissue sample preparation and EM analysis were described (Lee et al., 2012).
We examined the effect of TUDCA on NASH development. We initiated daily i.p. injections of TUDCA (250 mg/kg) or phosphate-buffered saline (PBS; vehicle control) to HFD-fed MUP-uPA mice at 16 weeks of age. […]

[3] = system: WT HcPC-transplanted MUP-uPA mice; assay: Effect of TNF antagonist on HFD-induced acceleration of tumor growth in HcPC-transplanted MUP-uPA mice; assay type: in vivo, mouse; conditions: HFD for 5 months; 5 mg/kg i.p. three times a week during the last 7 weeks, vs vehicle
Description: FIGS. 13A-13J are pictorial and graphical diagrams showing analyses of HcPC transplanted MUP-uPA mice. […] Data are means±S.D. (n=3 per group). […] FIGS. 13C-13F show no differences in the severity of NASH and TNF expression in the background liver of MUP-uPA mice transplanted with either WT and Tnfr1^−/− HcPC. Body weight (FIG. 13C), serum ALT (FIG. 13D), expression of TNF mRNA in non-tumor tissues (FIG. 13E), liver steatosis (FIG. 13F) and fibrosis (FIG. 13G) in MUP-uPA mice transplanted with either WT or Tnfr1^−/− HcPC and kept on LFD or HFD are shown (scale bar=100 μm). Data are expressed as means±S.D. (n=10-11 per group). *p<0.05. […] 5 mg/kg etanercept or vehicle control was i.p. injected three times a week during the last 7 weeks. Representative images of livers and maximal tumor sizes are shown. Data are expressed as means±S.E.M. (control, n=10; etanercept, n=12). […] HcPC-transplanted Tnfr1^−/−/MUP-uPA mice were divided into two groups that were fed with either LFD or HFD, and 5 months later tumorigenesis was assessed. Representative images of livers and maximal tumor sizes are shown. Data are expressed as means±S.E.M. (n=10 per group).
DEN (Sigma) was i.p. injected into male mice (25 mg/kg) on postnatal day 14. After 5 months, HcPCs were isolated as described and transplanted into 4 weeks old MUP-uPA (He et al., 2013). […]

[4] = 200 μM PA, WT hepatocytes, more pronounced in MUP-uPA hepatocytes
[5] = 250 mg/kg i.p. daily for 4 weeks from 16 weeks of age, vs PBS vehicle
[6] = 250 mg/kg i.p. daily for 4 weeks, vs vehicle

## O=C(O)CCCc1ccccc1 [4-PBA, 4-phenylbutyric acid]
[1]; 200 μM PA with 1 mM 4-PBA, IB
  CHOP induction upon PA treatment: reduced
  JNK phosphorylation upon PA treatment: only partially reduced
  SREBP1 maturation upon PA treatment: reduced
[2]
  PA-induced cell death (cell viability): attenuated PA-induced cell death

## CCCCCCCCCCCCCCCC(=O)O [PA, palmitic acid]
[1]; [4]
  CHOP expression caused by PA: increased
  SREBP1 maturation caused by PA: increased
[1]; 200 μM PA, effect restricted to WT hepatocytes
  JNK activation by PA: activated
[2]; 300 μM PA, after 24 hrs, more extensive in MUP-uPA hepatocytes
  lipotoxic cell death caused by PA: lipotoxic cell death was seen in both WT and MUP-uPA hepatocytes

## C[C@H](CCC(=O)NCCS(=O)(=O)O)[C@H]1CC[C@H]2[C@@H]3[C@@H](O)C[C@@H]4C[C@H](O)CC[C@]4(C)[C@H]3CC[C@]12C [TUDCA, tauroursodeoxycholic acid]
HFD-fed MUP-uPA mice; [5]
  hepatic TG: significantly reduced
  hepatic cholesterol: significantly reduced
  hepatocyte ballooning (liver histology): attenuated
  hepatosteatosis (liver histology): attenuated
  serum ALT: significantly reduced
HFD-fed MUP-uPA mice; 250 mg/kg i.p. daily for 4 weeks, nuclear fraction
  SREBP1 maturation in liver (IB): inhibited
HFD-fed MUP-uPA mice; [6]
  ROS accumulation (DHE staining): suppressed
  hepatocyte death (TUNEL): suppressed
HFD-fed MUP-uPA mice; 250 mg/kg i.p. daily for 4 weeks, whole liver
  CHOP expression in liver (IB): inhibited
HFD-fed MUP-uPA mice; 4 weeks TUDCA treatment
  TNF expression in liver (mRNA): inhibited
  macrophage infiltration in liver (F4/80 IHC): inhibited
[2]
  PA-induced cell death (cell viability): attenuated PA-induced cell death

## Etanercept
[3]
  HCC growth (maximal tumor size): significantly suppressed
